# From paper PMC9563500, “Effect of Coffee on the Bioavailability of Sterols” (Foods, 2022)
# Where two headings read alike, the source gives them in different places.
# What was measured:
# [1] = parameters: method as in PMID 4027244; settings: aqueous media; cited from earlier work
# [2] = Solubility of DHE in GCA micelles (DHE fluorescence intensity); format: physicochemical; settings: GCA 10 mM; Figure S6
# Method: S5 – Solubility of DHE in GCA micelles
# The solubility of DHE in the GCA micelles at the concentration of GCA used in the
# permeability assays (10 mM) was characterized from variations in DHE fluoresc ence in-
# tensity. The c once ntrati on of DHE was varied from 1 to 70 μM, with DHE bei ng ad ded to
# the GCA solution by squirti ng a small v olume of a DHE solution i n DMSO (% DMSO < 1
# %). The solutions obtai ned were optically clear and stable. However, the flu oresce nce in-
# tensity measured in a right-angle geometry was not linearly dependent on the intensity
# of light absorbed, Figure S6. This behaviour is in part due to geometr ical constraints due
# to the right-angle detection, with a significant fluoresce nce being emitted but not detected.
# present as small aggregates.
# Figure S6. Dependence of DHE fluorescence intensity ex/em = 324/372 nm on the intensity of light
# absorbed by DHE, when added to aqueous solutions containing 10 mM GCA. The hollow symbols
# correspond to DHE concentrations equal to 1, 5 and 10 μM, and the filled symbols correspond to
# DHE at 25, 50 and 70 μM. The line represents the best fit for the hollow symbols. […]
# [3] = test system: Caco-2 monolayers; assay: Absorptive (apical to basolateral) DHE permeability assay through Caco-2 monolayers; format: in vitro ADME, human
# Method: (§1) For transport experiments, the Caco-2 monolayers were prepared by seeding the cells at a density of 2.6 × 10^5 cells/cm^2 on 12-well polycarbonate Transwell^TM plates, following protocols previously defined for this assay. The cells were cultured until monolayer differentiation, for a total of 24 days, with culture medium being renewed every two days. On the day of the experiment, the culture medium was removed and replaced by HBSS medium pre-warmed at 37 °C (0.5 mL in the apical and 1.5 mL in the basolateral sides). The cell monolayers were placed in an incubator at 37 °C with a plate orbital shaker (IKA-Schüttler MTS4) at 50 rpm for 8 min. After two washing steps, the transepithelial electrical resistance (TEER) values were measured using a Millicell® ERS-2 voltmeter (Merck). The net TEER values (Ω cm^2) were obtained by subtracting the cell-free filter resistance and multiplying by filter area. All cell monolayers achieved TEER values exceeding 700 Ω cm^2 and were considered adequate for transport experiments.
# (§2) In assessing the influence of coffees samples on DHE absorption by intestinal epithelia, the transport was studied in the absorptive way; that is, in the apical (mimicking the intestinal lumen) to the basolateral (mimicking the bloodstream) direction. The solutions of DHE to be applied in the apical side were prepared as follows: first, the lyophilized coffee extracts (16-fold diluted) were dissolved with GCA (10 mM) solution in HBSS. Then, the mixtures were allowed to equilibrated overnight in a 37 °C in a water bath with shaking at 100 rpm. On the day of the experiment, DHE was added to the coffee/GCA mixture or to GCA only (Control) as an aliquot from a DMSO stock of 10 mM DHE. Addition was performed under vigorous vortex mixing to facilitate DHE interaction with the GCA micelles and prevent its precipitation. The final DHE concentration ranged from 10 to 100 μM, corresponding to ≤1% (v/v) DMSO. To allow evaluation of the cell monolayer integrity in each permeability assay, the paracellular marker Lucifer Yellow (LY) was also added to the final mixtures at a concentration of 20 μM. The solutions were maintained at 37 °C until application in the permeability assay, and where optically clear.
# (§3) It was therefore necessary to guarantee that the composition of the acceptor compartment in the permeability assay has an adequate ability to solubilize the sterol and allow its quantification. To approach the in vivo conditions in absorptive cholesterol transport, the acceptor compartment contained serum albumin at 100 µM, which corresponds to the concentration usually found in interstitial tissues. Serum albumin binds the cholesterol analog DHE with low to moderate affinity, KB = 5 × 10^4 [37], and at the concentration used DHE solubility is increased by at least an order of magnitude. To decrease the adsorption of DHE to the plate well and to the basolateral membrane, the transport media added to the basolateral side contained additionally 1% (v/v) DMSO. The presence of BSA and DMSO lead to improved sink conditions and higher DHE recoveries. The solutions from the acceptor compartments in the permeability assay where lyophilized directly in the wells of the permeability assay. A small amount of water was then added to facilitate detachment from the plate and solubilize salts and BSA. Ice-cold methanol was then added to dissolve DHE and precipitate the serum albumin. The DHE recovery efficiency when following this procedure was at least 90% (for details see Table S3 of the Supplementary Materials).
# (§4) To start the absorptive transport experiments, the HBSS on the apical side was removed and replaced with 450 μL of the test solution (emulsified DHE + LY, emulsified DHE + coffee + LY or LY solutions). After addition of the test solution, 50 μL was collected (corresponding to a time delay of about 2 min) and the inserts were moved to a 12-well plate containing 1.2 mL of the basolateral transport medium. […]
# [4] = as above; format: in vitro ADME, human; settings: human, Caco-2, pH 7.4, GCA 10 mM, absence of coffee, 6 h, read-out: DHE apparent permeability coefficient (Papp)
# Method: as §1, §2, §3, §4
# [5] = parameters: method as in PMID 17766353; settings: cited from earlier work
# [6] = 50 mM bile salt concentration; cited from earlier work
# [7] = MTT cell viability assay (bile salts and coffee extracts); format: cell-based; settings: human, Caco-2 cells, pH 7.4; for viability at 2 h: Figure S4 (incubation 2 h)
# Method: The influence of bile salts and coffee extracts on the Caco-2 cells viability was assessed with the MTT assay for determination of mitochondrial activity in active cells. Briefly, the cells were seeded in 96-well plates at a density of 1 × 10^4 cells/well in 200 μL of medium. Cells were then maintained in culture until confluence, for 96 h with medium renewal after 3 days. Solutions of individual bile salts GCDCA, GDCA, GCA and the combination of all three were prepared in the transport buffer HBSS (containing 25 mM HEPES, 0.35 g/L sodium bicarbonate, pH 7.4) at several concentrations above their critical micellar concentration (CMC). Two-fold serial dilutions of individual coffee extracts or mixtures with the bile salts were prepared by diluting the lyophilized extracts in HBSS or HBSS plus bile salts. The following controls were also included: 20% (v/v) of dimethyl sulfoxide (DMSO) in HBSS (positive control) and only HBSS (negative control). The cells were incubated for 6 h with test samples or controls (200 μL). Then, the cells were washed with PBS and incubated with 150 μL of MTT diluted in medium (0.5 mg/mL) for 4 h at 37 °C. Finally, the medium was discarded, and the formazan crystals produced by active cells were solubilized with dimethyl sulfoxide (150 μL) for 15 min under continuous stirring. The absorbances were measured at 570 nm in a Synergy HT Microplate Reader (BioTek Instruments, Inc., Winooski, VT, USA). All conditions were performed in triplicate. Results are expressed as a percentage of cell viability relative to the negative control.
# [8] = parameters: method as in PMID 27079626, PMID 22569559; settings: cited from earlier work
# [9] = test system: Caco-2 monolayers; assay: Lucifer Yellow paracellular permeability through Caco-2 monolayers (cell monolayer integrity); format: in vitro ADME, human
# Method: as §1, §2
# To start the absorptive transport experiments, the HBSS on the apical side was removed and replaced with 450 μL of the test solution (emulsified DHE + LY, emulsified DHE + coffee + LY or LY solutions). After addition of the test solution, 50 μL was collected (corresponding to a time delay of about 2 min) and the inserts were moved to a 12-well plate containing 1.2 mL of the basolateral transport medium. The plate was kept at 37 °C under stirring at 50 rpm for a total period of 6 h, with the assays being performed with either a single point sampling or three-points with 2 h sampling intervals. During the three-point sampling assay, 25 μL of the apical compartment was withdrawn at 2 and 4 h and replaced with fresh HBSS. At each time point indicated, the insert was also moved to another 12-well plate containing fresh basolateral medium (transfer sampling). At the end of the experiment (t6h), the inserts were transferred into empty wells and 50 μL were collected from the apical compartment and the remaining solution was decanted and stored. The 12-well plates with the samples of the basolateral compartments were frozen (−18 °C) and lyophilized. The same procedure was also applied to the aliquots of the apical side. All samples were then stored in a humidity-controlled environment until analysis.
# The paracellular permeability of each cell monolayer was assessed by the quantification of LY transport from the apical and basolateral sides. For the samples from the apical side, aliquots of 50 μL were withdrawn at the beginning and end of the permeation experiment. The samples were diluted 30-fold and 100 µL were transferred to a 96-wells plate with clear bottom and black sides (Thermo Scientific Nunc). […]
# [10] = average over Table 2 samples (DHE 10, 50 and 100 µM)
# [11] = multi-time point assay, LY 20 µM alone or with DHE 10 µM emulsified by GCA 10 mM, without or with coffee extract (16-fold diluted), n = 2
compound,measurement,setting,value
"CC(C)[C@@H](C)C=C[C@@H](C)[C@H]1CC[C@H]2C3=CC=C4C[C@@H](O)CC[C@]4(C)C3=CC[C@]12C [DHE, ergosta-5,7,9(11),22-tetraen-3β-ol]",estimated critical aggregation concentration,[1],25 nM
same,DHE emulsified by GCA,[2],up to 10 µM
same,DHE in the acceptor (basolateral) compartment,"[3]; DHE 10 µM apical, transfer sampling at 2, 4 and 6 h, detection limit 1.6 pmol",not detected
same,fraction of DHE that disappears from the apical transport media immediately after addition to the cell monolayers,"[3]; DHE 10 µM, GCA 10 mM, about 2 min, control (no coffee) or with coffee brew diluted 16 times",18.5 ± 3.9%
same,additional decrease of DHE in suspension in the apical compartment,"[3]; DHE 10 µM, GCA 10 mM, at 4 and 6 h incubation",about 2%
same,amount of DHE extracted from the cells,"[3]; end of permeability assay (6 h), DHE 10 µM, GCA 10 mM, control or with coffee brew",16.3 ± 4.7%
same,"Papp at 6 h, 50 µM",[4]; 50 µM DHE,0.0017 ×10⁻⁶ cm/s
same,"Papp at 6 h, 100 µM",[4]; 100 µM DHE,0.026 ×10⁻⁶ cm/s
same,characteristic rate constant for desorption from membranes,[5]; liquid disordered phase,0.001 s⁻¹
same,characteristic rate constant for desorption from membranes,[5]; liquid ordered phase,6.9e-05 s⁻¹
"C[C@H](CCC(=O)NCC(=O)O)[C@H]1CC[C@H]2[C@@H]3[C@H](O)C[C@@H]4C[C@H](O)CC[C@]4(C)[C@H]3C[C@H](O)[C@]12C [GCA, glycocholic acid]",capacity to emulsify cholesterol,[6],1.0 mM
same,"viability at 6 h, 15 mM","[7]; GCA 15 mM, 6 h exposure, relative to HBSS control",80%
same,viability at 2 h,[7]; GCA in HBSS at concentrations ≤12.5 mM,> 90%
same,critical micelle concentration (CMC),[8],6.5 mM
"CC(CCC(=O)NCC(=O)O)C1CCC2C3CCC4CC(O)CCC4(C)C3CC(O)C12C (stereo not drawn) [GDCA, glycodeoxycholic acid]",capacity to emulsify cholesterol,[6],up to 3 mM
same,viability at 2 h,"[7]; GDCA in HBSS, all tested concentrations (1.56–50 mM)",< 10%
same,critical micelle concentration (CMC),[8],1.7 mM
"CC(CCC(=O)NCC(=O)O)C1CCC2C3C(O)CC4CC(O)CCC4(C)C3CCC12C (stereo not drawn) [GCDCA, glycochenodeoxycholic acid]",capacity to emulsify cholesterol,[6],1.3 mM
same,critical micelle concentration (CMC),[8],1.6 mM
Lucifer yellow CH di-potassium salt [LY],"Papp of LY, average value",[9]; [10],0.13 ×10⁻⁶ cm/s
same,"amount of LY transported over the 6 h incubation, average value",[9]; [10],0.8%
same,Papp of LY (×10^−6),"[9]; multi-time point assay, last time interval of 2 h, LY alone or with DHE 10 µM/GCA 10 mM, without or with coffee extract, n = 2",0.64 ×10^−6 cm/s
same,% Transport of LY 0–2 h,[9]; [11],1.6%
same,% Transport of LY 2–4 h,[9]; [11],0.9%
same,% Transport of LY 4–6 h,[9]; [11],1.3%
same,% Transport of LY 6 h,"[9]; single time point 6 h, LY only",1.6%
same,Papp of LY (×10^−6),"[9]; single time point 6 h, LY only",0.27 ×10^−6 cm/s
